Legend:
[1] = biological target: T1, FLJ39196 clone-derived protein (human neurocalcin δ) (Homo sapiens, UniProt P61601); assay: SEC/MS interaction analysis (size exclusion spin column and mass analysis) with FLJ39196 clone-derived protein; assay type: binding
T1 construct: A human full-length cDNA clone was expressed as a protein with an N-terminal His tag; His tag (N); made in house; host or cells: Escherichia coli BL21star(DE3)pLysS (pDEST17 Gateway expression plasmid)
How it was run: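 Unmodified, non-immobilized protein was mixed with compound and separated by size exclusion on 384-well Unifilter 100 spin columns packed with 10 μL Bio-Gel P6. The protein-fraction filtrate was collected in 50% acetonitrile, deproteinized, concentrated, redissolved in 10 μL of 50% methanol, and 2 μL was injected for ESI mass analysis of compound spectral intensity.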

[2] = biological target: T2, FLJ20589 clone-derived protein (human hippocalcin-like protein 1, VILIP-3) (Homo sapiens, UniProt P37235); assay: SEC/MS interaction analysis (size exclusion spin column and mass analysis) with FLJ20589 clone-derived protein; assay type: binding
T2 construct: A human full-length cDNA clone was expressed as a protein with an N-terminal His tag; His tag (N); made in house; host or cells: Escherichia coli BL21star(DE3)pLysS (pDEST17 Gateway expression plasmid)

[3] = protein 0 μM (protein-free reference), compound 1 μM
[4] = protein 0 μM (protein-free reference), compound 10 μM
[5] = protein 0 μM (protein-free reference), compound 100 μM
[6] = protein 0 μM (protein-free reference), compound 250 μM
[7] = protein 23.75 μM, compound 1 μM
[8] = protein 23.75 μM, compound 10 μM
[9] = protein 23.75 μM, compound 100 μM
[10] = protein 23.75 μM, compound 250 μM
[11] = protein 47.5 μM, compound 10 μM
[12] = protein 47.5 μM, compound 100 μM
[13] = protein 47.5 μM, compound 250 μM

spectral intensity of the compound in the SEC spin column filtrate (protein fraction) [1, 3]	spectral intensity of the compound in the SEC spin column filtrate (protein fraction) [1, 4]	spectral intensity of the compound in the SEC spin column filtrate (protein fraction) [1, 5]	spectral intensity of the compound in the SEC spin column filtrate (protein fraction) [1, 6]	spectral intensity of the compound in the SEC spin column filtrate (protein fraction) [1, 7]	spectral intensity of the compound in the SEC spin column filtrate (protein fraction) [1, 8]	spectral intensity of the compound in the SEC spin column filtrate (protein fraction) [1, 9]	spectral intensity of the compound in the SEC spin column filtrate (protein fraction) [1, 10]	spectral intensity of the compound in the SEC spin column filtrate (protein fraction) ([1]; protein 47.5 μM, compound 1 μM)	spectral intensity of the compound in the SEC spin column filtrate (protein fraction) [1, 11]	spectral intensity of the compound in the SEC spin column filtrate (protein fraction) [1, 12]	spectral intensity of the compound in the SEC spin column filtrate (protein fraction) [1, 13]	spectral intensity of the compound in the SEC spin column filtrate (protein fraction) [2, 3]	spectral intensity of the compound in the SEC spin column filtrate (protein fraction) [2, 4]	spectral intensity of the compound in the SEC spin column filtrate (protein fraction) [2, 5]	spectral intensity of the compound in the SEC spin column filtrate (protein fraction) [2, 6]	spectral intensity of the compound in the SEC spin column filtrate (protein fraction) [2, 7]	spectral intensity of the compound in the SEC spin column filtrate (protein fraction) [2, 8]	spectral intensity of the compound in the SEC spin column filtrate (protein fraction) [2, 9]	spectral intensity of the compound in the SEC spin column filtrate (protein fraction) [2, 10]	other results	SMILES
32068857	34579053	30705006	32278650	27516354	30253800	60323012	85169446	33844567	38342358	152159135	322219706	2704636	2935358	2558136	3779926	2343078	2189489	3826699	3607174	spectral intensity of the compound in the SEC spin column filtrate (protein fraction) ([2]; protein 47.5 μM, compound 1 μM): 1367901; spectral intensity of the compound in the SEC spin column filtrate (protein fraction) [2, 11]: 2513645; spectral intensity of the compound in the SEC spin column filtrate (protein fraction) [2, 12]: 8024232; spectral intensity of the compound in the SEC spin column filtrate (protein fraction) [2, 13]: 28949362	c1ccc(-c2ccc(C(c3ccccc3)n3ccnc3)cc2)cc1 (stereo not drawn) [Bifonazole]
6645734	7904072	204390563	632906281	7580781	40058178	293702761	1292987653	7231665	14142338	5846308	2293500744	1499445	1420853	2266965	4146130	469062	893634	41947038	57062370	spectral intensity of the compound in the SEC spin column filtrate (protein fraction) ([2]; protein 47.5 μM, compound 1 μM): 459554; spectral intensity of the compound in the SEC spin column filtrate (protein fraction) [2, 11]: 2953415; spectral intensity of the compound in the SEC spin column filtrate (protein fraction) [2, 12]: 67433540; spectral intensity of the compound in the SEC spin column filtrate (protein fraction) [2, 13]: 116228047	CN1CCN(CCCN2c3ccccc3Sc3ccc(C(F)(F)F)cc32)CC1 [Trifluoperazine]

From US8178077B2, “Drug development target protein and target gene, and method of screening” (Reverse Proteomics Research Institute Co., Ltd., priority 2004, dated 2012)
